Laboratory results from ChEMBL document CHEMBL1201862, “PubChem BioAssay data set” (2004).
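Where inhibition never reached the appropriate level, the endpoint shown equals the highest concentration tested. Otherwise, values were interpolated linearly from a five-concentration, 48-hour dose response in 96-well plates. Abbreviation: GI50, concentration required for 50% inhibition of growth.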 Active and inactive are the calls of the source. Cut-off read from the data, not from the text of the source: active = GI50 up to about 1.1 µM and inactive = higher.

What was measured:
Experiment in all cases: DTP human tumour cell line panel, 48 h
786-0 = test system: 786-0
A498 = test system: A498
A549 = test system: A549
ACHN = test system: ACHN
CAKI-1 = test system: CAKI-1
CCRF-CEM = test system: CCRF-CEM
COLO 205 = test system: COLO 205
DU-145 = test system: DU-145
EKVX = test system: EKVX
HCC 2998 = test system: HCC 2998
HCT-116 = test system: HCT-116
HCT-15 = test system: HCT-15
HOP-62 = test system: HOP-62
HOP-92 = test system: HOP-92
HT-29 = test system: HT-29
Hs-578T = test system: Hs-578T
IGROV-1 = test system: IGROV-1
K562 = test system: K562
KM12 = test system: KM12
M14 = test system: M14
MCF7 = test system: MCF7
MDA-MB-231 = test system: MDA-MB-231
MDA-MB-435 = test system: MDA-MB-435
MDA-N = test system: MDA-N
MOLT-4 = test system: MOLT-4
Malme-3M = test system: Malme-3M
NCI-H23 = test system: NCI-H23
NCI-H460 = test system: NCI-H460
NCI-H522 = test system: NCI-H522
NCI/ADR-RES = test system: NCI/ADR-RES
OVCAR-3 = test system: OVCAR-3
OVCAR-4 = test system: OVCAR-4
OVCAR-5 = test system: OVCAR-5
OVCAR-8 = test system: OVCAR-8
PC-3 = test system: PC-3
RPMI-8226 = test system: RPMI-8226
RXF 393 = test system: RXF 393
SF-295 = test system: SF-295
SK-MEL-28 = test system: SK-MEL-28
SK-MEL-2 = test system: SK-MEL-2
SK-MEL-5 = test system: SK-MEL-5
SK-OV-3 = test system: SK-OV-3
SNB-19 = test system: SNB-19
SR = test system: SR
SW-620 = test system: SW-620
T47D = test system: T47D
U-251 = test system: U-251
UACC-257 = test system: UACC-257
UACC-62 = test system: UACC-62
UO-31 = test system: UO-31
BT-549 = test system: BT-549
HL-60 = test system: HL-60
LOX IMVI = test system: LOX IMVI
NCI-H226 = test system: NCI-H226
SF-268 = test system: SF-268
SF-539 = test system: SF-539
SN12C = test system: SN12C
TK-10 = test system: TK-10

CN/C(=N\n1cnnc1)OC
GI50 (786-0): > 100 µM (inactive) | GI50 (A498): > 100 µM (inactive) | GI50 (A549): > 100 µM (inactive) | GI50 (ACHN): > 100 µM (inactive) | GI50 (CAKI-1): > 100 µM (inactive) | GI50 (CCRF-CEM): > 100 µM (inactive) | GI50 (COLO 205): > 100 µM (inactive) | GI50 (DU-145): > 100 µM (inactive) | GI50 (EKVX): > 100 µM (inactive) | GI50 (HCC 2998): > 100 µM (inactive) | GI50 (HCT-116): > 100 µM (inactive) | GI50 (HCT-15): > 100 µM | GI50 (HOP-62): > 100 µM (inactive) | GI50 (HOP-92): > 100 µM (inactive) | GI50 (HT-29): > 100 µM (inactive) | GI50 (Hs-578T): > 100 µM (inactive) | GI50 (IGROV-1): > 100 µM (inactive) | GI50 (K562): > 100 µM (inactive) | GI50 (KM12): > 100 µM (inactive) | GI50 (M14): > 100 µM (inactive) | GI50 (MCF7): > 100 µM (inactive) | GI50 (MDA-MB-231): > 100 µM (inactive) | GI50 (MDA-MB-435): > 100 µM (inactive) | GI50 (MDA-N): > 100 µM (inactive) | GI50 (MOLT-4): > 100 µM (inactive) | GI50 (Malme-3M): > 100 µM (inactive) | GI50 (NCI-H23): > 100 µM (inactive) | GI50 (NCI-H460): > 100 µM (inactive) | GI50 (NCI-H522): > 100 µM (inactive) | GI50 (NCI/ADR-RES): > 100 µM (inactive) | GI50 (OVCAR-3): > 100 µM (inactive) | GI50 (OVCAR-4): > 100 µM (inactive) | GI50 (OVCAR-5): > 100 µM (inactive) | GI50 (OVCAR-8): > 100 µM (inactive) | GI50 (PC-3): > 100 µM (inactive) | GI50 (RPMI-8226): > 100 µM (inactive) | GI50 (RXF 393): > 100 µM (inactive) | GI50 (SF-295): > 100 µM (inactive) | GI50 (SK-MEL-28): > 100 µM (inactive) | GI50 (SK-MEL-2): > 100 µM (inactive) | GI50 (SK-MEL-5): > 100 µM (inactive) | GI50 (SK-OV-3): > 100 µM (inactive) | GI50 (SNB-19): > 100 µM (inactive) | GI50 (SR): > 100 µM (inactive) | GI50 (SW-620): > 100 µM (inactive) | GI50 (T47D): > 100 µM (inactive) | GI50 (U-251): > 100 µM (inactive) | GI50 (UACC-257): > 100 µM (inactive) | GI50 (UACC-62): > 100 µM (inactive) | GI50 (UO-31): > 100 µM (inactive)

O=C(c1ccccc1)c1cc(-c2ccccc2)c(-c2ccccc2)[nH]c(=O)c1=O
GI50 (786-0): > 100 µM (inactive) | GI50 (A498): 77.4 µM (inactive) | GI50 (A549): 41.7 µM (inactive) | GI50 (ACHN): 63.5 µM (inactive) | GI50 (BT-549): 22.5 µM (inactive) | GI50 (CAKI-1): 30.9 µM (inactive) | GI50 (CCRF-CEM): 15.2 µM (inactive) | GI50 (COLO 205): 27.2 µM (inactive) | GI50 (EKVX): 33.7 µM (inactive) | GI50 (HCC 2998): 26.9 µM (inactive) | GI50 (HCT-116): 35.2 µM (inactive) | GI50 (HCT-15): 28.3 µM | GI50 (HL-60): 15.7 µM (inactive) | GI50 (HOP-62): 59.6 µM (inactive) | GI50 (HOP-92): 41.1 µM (inactive) | GI50 (HT-29): 36.6 µM (inactive) | GI50 (Hs-578T): 40.9 µM (inactive) | GI50 (IGROV-1): 60 µM (inactive) | GI50 (K562): 32.6 µM (inactive) | GI50 (KM12): 35.8 µM (inactive) | GI50 (LOX IMVI): 34.5 µM (inactive) | GI50 (M14): 41.2 µM (inactive) | GI50 (MCF7): 31.5 µM (inactive) | GI50 (MDA-MB-231): > 100 µM (inactive) | GI50 (MDA-MB-435): 30.5 µM (inactive) | GI50 (MDA-N): 38.5 µM (inactive) | GI50 (MOLT-4): 24.2 µM (inactive) | GI50 (Malme-3M): 49.3 µM (inactive) | GI50 (NCI-H226): 43.4 µM (inactive) | GI50 (NCI-H23): 19 µM (inactive) | GI50 (NCI-H460): 34 µM (inactive) | GI50 (NCI-H522): 22.1 µM (inactive) | GI50 (NCI/ADR-RES): 33.7 µM (inactive) | GI50 (OVCAR-3): 35.6 µM (inactive) | GI50 (OVCAR-4): 33.7 µM (inactive) | GI50 (OVCAR-5): 54.2 µM (inactive) | GI50 (OVCAR-8): 37.4 µM (inactive) | GI50 (PC-3): 36.6 µM (inactive) | GI50 (RPMI-8226): 23.9 µM (inactive) | GI50 (SF-268): 50.5 µM (inactive) | GI50 (SF-295): 40.7 µM (inactive) | GI50 (SF-539): 31.3 µM (inactive) | GI50 (SK-MEL-28): 42.2 µM (inactive) | GI50 (SK-MEL-2): 24.3 µM (inactive) | GI50 (SK-MEL-5): 31.6 µM (inactive) | GI50 (SK-OV-3): > 100 µM (inactive) | GI50 (SN12C): 35.2 µM (inactive) | GI50 (SNB-19): 64.6 µM (inactive) | GI50 (SR): 24.1 µM (inactive) | GI50 (SW-620): 37.2 µM (inactive) | GI50 (TK-10): 56.2 µM (inactive) | GI50 (U-251): 37.8 µM (inactive) | GI50 (UACC-257): 41.5 µM (inactive) | GI50 (UACC-62): 25.1 µM (inactive) | GI50 (UO-31): 35.8 µM (inactive)
